# pIC50: −log10 of the molar value. Like-named read-outs stand apart in the source and are kept apart here.
# How the values were obtained:
# [1] = molecular target: T1, SHP2 (Homo sapiens, UniProt Q06124); assay: Inhibition of human recombinant tyrosine phosphatase SHP2 (DiFMUP fluorescence); type: biochemical
# T1 construct: purchased Sigma-Aldrich
# T1 sequence (Q06124 1-593): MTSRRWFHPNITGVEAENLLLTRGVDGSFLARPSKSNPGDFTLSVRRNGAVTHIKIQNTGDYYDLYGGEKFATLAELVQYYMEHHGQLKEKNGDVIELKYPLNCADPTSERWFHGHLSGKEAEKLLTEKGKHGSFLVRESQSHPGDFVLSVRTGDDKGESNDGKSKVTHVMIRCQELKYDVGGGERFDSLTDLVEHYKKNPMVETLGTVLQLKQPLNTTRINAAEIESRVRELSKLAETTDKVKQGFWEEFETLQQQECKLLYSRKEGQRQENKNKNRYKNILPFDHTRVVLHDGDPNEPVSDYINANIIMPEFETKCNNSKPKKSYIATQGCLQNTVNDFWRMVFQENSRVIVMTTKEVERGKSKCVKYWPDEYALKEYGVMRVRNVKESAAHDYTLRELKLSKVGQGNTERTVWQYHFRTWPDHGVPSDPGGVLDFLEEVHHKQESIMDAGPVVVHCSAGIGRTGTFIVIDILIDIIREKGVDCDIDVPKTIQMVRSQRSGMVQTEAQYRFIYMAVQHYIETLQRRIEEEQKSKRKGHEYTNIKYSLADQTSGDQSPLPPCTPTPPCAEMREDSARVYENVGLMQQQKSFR
# Protocol: (§1) To determine the ability of the tested compounds for inhibition tyrosine phosphatases, human recombinant proteins were used (Sigma-Aldrich). The reactions were performed in black opaque 384-well microplates (PerkinElmer, Waltham, MA, USA). An equal volume of phosphatase solution in a reaction buffer (25 mM of 3-(N-morpholino)propanesulfonic acid (MOPS), 50 mM NaCl, 1 mM dithiothreitol (DTT), and 0.05% Tween-20 (pH 7.0)) was added to the solution of the tested compound on microplate. These solutions were dispensed using an automated injector. The following final concentrations of the tested phosphatases were used: PTP1B 50 ng/mL, SHP1 400 ng/mL, SHP2 50 ng/mL, LAR 5 ng/mL, and PTPRA 100 ng/mL. After 10 min, a solution of phosphate 6,8-difluoro-4-methyl (DiFMUP; Thermo Fisher Scientific) was added until its final concentration was 0.1 mM. Samples were incubated for 20 miN at 23 °C, and then the measurements of fluorescence intensity (excitation 355 and emission […]) were performed on a multifunctional plate reader POLARstar Omega (BMG Labtech, Ortenberg, Germany). Assays were performed in triplicate. For the screening assays, the final concentration of the tested compounds was 1 µM. The results were expressed as percent inhibition of untreated control (enzyme with vehicle only) for the screening tests. […] IC50 were calculated using GraphPad Prism version 6.0 software (GraphPad Software, Boston, MA, USA).
# [2] = molecular target: T2, PTP1B (Homo sapiens, UniProt P18031); assay: Inhibition of human recombinant tyrosine phosphatase PTP1B (DiFMUP fluorescence); type: biochemical; details: for Inhibition of PTP1B, percentage of inhibition of the control: 1 µM, control solvent only, SD did not exceed 6%; for Log IC50 ± SD PTP1B: logarithm of IC50
# T2 construct: purchased Sigma-Aldrich
# T2 sequence (P18031 1-435): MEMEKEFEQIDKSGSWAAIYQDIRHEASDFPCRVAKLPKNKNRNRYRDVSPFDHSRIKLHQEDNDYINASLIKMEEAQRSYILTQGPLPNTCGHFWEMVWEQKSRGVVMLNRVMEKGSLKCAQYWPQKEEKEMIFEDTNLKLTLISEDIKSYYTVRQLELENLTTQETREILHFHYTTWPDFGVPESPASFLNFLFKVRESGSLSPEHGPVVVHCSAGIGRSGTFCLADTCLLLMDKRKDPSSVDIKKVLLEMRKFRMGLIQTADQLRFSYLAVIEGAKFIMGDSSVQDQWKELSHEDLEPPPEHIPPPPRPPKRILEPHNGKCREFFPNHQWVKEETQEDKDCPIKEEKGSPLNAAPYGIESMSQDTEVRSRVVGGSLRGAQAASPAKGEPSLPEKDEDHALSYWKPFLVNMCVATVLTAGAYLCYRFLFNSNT
# Protocol: as §1
# [3] = molecular target: T3, SHP1 (Homo sapiens, UniProt P29350); assay: Inhibition of human recombinant tyrosine phosphatase SHP1 (DiFMUP fluorescence); type: biochemical; details: for Log IC50 ± SD SHP1: logarithm of IC50
# T3 construct: purchased Sigma-Aldrich
# Protocol: as §1
# [4] = molecular target: T4, LAR (Homo sapiens, UniProt P10586); assay: Inhibition of human recombinant tyrosine phosphatase LAR (DiFMUP fluorescence); type: biochemical
# T4 sequence (P10586 1352-1607 limits assumed): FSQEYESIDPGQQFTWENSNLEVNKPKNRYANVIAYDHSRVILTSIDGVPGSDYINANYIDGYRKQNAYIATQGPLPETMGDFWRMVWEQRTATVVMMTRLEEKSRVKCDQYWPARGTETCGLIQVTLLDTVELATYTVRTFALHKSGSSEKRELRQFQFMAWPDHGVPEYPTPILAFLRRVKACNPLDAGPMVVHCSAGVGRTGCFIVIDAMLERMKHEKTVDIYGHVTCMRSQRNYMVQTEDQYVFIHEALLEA
# Protocol: as §1
# [5] = molecular target: T5, CDC25A (Homo sapiens, UniProt P30304); assay: Inhibition of human recombinant non-tyrosine phosphatase CDC25A (3-O-methylfluorescein phosphate); type: biochemical
# T5 construct: purchased Sigma-Aldrich
# T5 sequence (P30304 1-524): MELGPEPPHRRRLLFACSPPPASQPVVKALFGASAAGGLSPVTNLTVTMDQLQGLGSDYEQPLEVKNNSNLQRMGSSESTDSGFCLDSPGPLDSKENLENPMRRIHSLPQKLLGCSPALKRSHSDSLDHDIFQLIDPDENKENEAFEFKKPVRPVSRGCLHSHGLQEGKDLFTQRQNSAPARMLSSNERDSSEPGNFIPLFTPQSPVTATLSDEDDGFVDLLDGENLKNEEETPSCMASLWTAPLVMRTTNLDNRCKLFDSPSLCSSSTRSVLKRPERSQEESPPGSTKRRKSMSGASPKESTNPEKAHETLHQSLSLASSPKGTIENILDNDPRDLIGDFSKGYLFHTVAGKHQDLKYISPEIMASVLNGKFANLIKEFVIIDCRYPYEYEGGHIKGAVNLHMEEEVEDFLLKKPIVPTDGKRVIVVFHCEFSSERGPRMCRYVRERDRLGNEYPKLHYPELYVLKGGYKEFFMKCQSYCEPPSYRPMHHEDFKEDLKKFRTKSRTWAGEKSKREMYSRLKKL
# Protocol: (§2) For the inhibition assay of non-tyrosine phosphatases, human recombinant proteins were used (Sigma-Aldrich). The reactions were performed in black opaque 384-well microplates (PerkinElmer). To the solution of the tested complexes, an equal volume of a test solution of phosphatase was added. CDC25A were diluted in reaction buffer to the final concentration of 400 ng/mL as for tyrosine phosphatases (described in the section above), and PPA2 (final 0.5 U/mL) was diluted in 50 mM Tris-HCl, 0.05% Tween-20, and 125 µg/mL protease-free bovine serum albumin (pH 7.0). These solutions were dispensed using an automated injector. After 10 min, a solution of phosphate 6,8-difluoro-4-methyl (DiFMUP; Thermo Fisher Scientific) was added for the PPA2 sample until the final concentration 0.1 mM. For CDC25A samples, 3-O-methylfluorescein phosphate for the final concentration of 0.2 mM was added. Samples were incubated for 180 min at 23 °C, and then the measurements of fluorescence intensity (excitation 355 and emission 560 nm) were performed on a multifunctional plate reader POLARstar Omega (BMG Labtech). Assays were performed in triplicate. The results were expressed as percent of inhibition of untreated control (enzyme with vehicle solvent only).
# [6] = molecular target: PP2A (Homo sapiens, UniProt P67775); assay: Inhibition of human recombinant non-tyrosine phosphatase PP2A (DiFMUP); type: biochemical
# Protocol: as §2
# [7] = system: myocytes C2C12; assay: Viability of myocytes C2C12 after 24 h incubation (resazurin-based reagent); details: 50 µM
# Protocol: Simultaneously with glucose consumption tests, the viability of myocytes C2C12 was examined due to their prolonged 24 h incubation with vanadium complexes.
# Prolonged incubation of the cells with vanadium complexes, as was the case during the study of the effect on glucose consumption, more closely corresponds to the actual conditions of clinical use, also allowing for the identification of possible cytotoxic effects. […] A Resazurin-based reagent is reduced proportionally to the metabolic activity of cells as a result of the transference of electrons from NADPH+H^+, the amount of which strictly depends on glucose metabolism.
# [8] = 1 µM, control solvent only, SD did not exceed 6%
# Sequence of PP2A (P67775 whole entry): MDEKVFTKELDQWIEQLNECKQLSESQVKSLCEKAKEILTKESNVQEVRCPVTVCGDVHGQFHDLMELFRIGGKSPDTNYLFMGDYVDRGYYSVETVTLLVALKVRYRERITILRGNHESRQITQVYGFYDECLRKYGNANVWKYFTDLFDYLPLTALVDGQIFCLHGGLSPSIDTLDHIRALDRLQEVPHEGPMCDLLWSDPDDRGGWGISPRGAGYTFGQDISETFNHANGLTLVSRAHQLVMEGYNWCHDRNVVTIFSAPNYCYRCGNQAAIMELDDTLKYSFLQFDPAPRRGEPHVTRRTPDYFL
# T3 sequence (P29350 whole entry): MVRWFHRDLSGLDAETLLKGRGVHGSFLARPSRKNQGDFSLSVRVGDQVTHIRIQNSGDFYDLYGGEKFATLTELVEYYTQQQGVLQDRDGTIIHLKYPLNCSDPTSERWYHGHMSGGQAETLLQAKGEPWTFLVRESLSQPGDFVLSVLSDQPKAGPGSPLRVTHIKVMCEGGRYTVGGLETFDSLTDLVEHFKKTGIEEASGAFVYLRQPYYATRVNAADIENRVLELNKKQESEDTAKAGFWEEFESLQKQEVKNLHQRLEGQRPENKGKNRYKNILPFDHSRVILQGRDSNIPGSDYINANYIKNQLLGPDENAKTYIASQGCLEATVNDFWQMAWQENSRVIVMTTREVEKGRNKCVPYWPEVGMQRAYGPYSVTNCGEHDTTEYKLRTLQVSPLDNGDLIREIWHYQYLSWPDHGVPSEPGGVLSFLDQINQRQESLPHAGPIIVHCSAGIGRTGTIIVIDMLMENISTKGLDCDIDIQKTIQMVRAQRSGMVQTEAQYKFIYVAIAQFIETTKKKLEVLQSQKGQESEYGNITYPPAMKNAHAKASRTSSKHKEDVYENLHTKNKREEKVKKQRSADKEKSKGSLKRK
Molecule,"Inhibition of SHP2, percentage of inhibition of the control [1, 8]","Inhibition of PTP1B, percentage of inhibition of the control [2]","Inhibition of SHP1, percentage of inhibition of the control [3, 8]","Inhibition of LAR, percentage of inhibition of the control [4, 8]",pIC50 [1],"Inhibition of CDC25A, percentage inhibition of control ± SD ([5]; 1 µM)","Inhibition of CDC25A, percentage inhibition of control ± SD ([5]; 10 µM)",Log IC50 ± SD PTP1B [2],pIC50 ([2]; read-out: IC50 PTP1B),pIC50 [3],Log IC50 ± SD SHP1 [3],"Inhibition of PP2A, percentage inhibition of control ± SD ([6]; 1 µM)","Inhibition of PP2A, percentage inhibition of control ± SD ([6]; 10 µM)",pIC50 [4],also measured
"CCC(C)C(N=C(C)CC(=S)Nc1ccccc1)C(=O)[O][V](=[O])([Cl])[Cl] (racemic) [VC109, [VOCl2(L5)]·3HCl]",83%,70%,80%,56%,,,,,,,,,,,
"Cc1ccc(C(=O)Nc2ccc(S(=O)(=O)O)c3cc(S(=O)(=O)O)cc(S(=O)(=O)O)c23)cc1NC(=O)c1cccc(NC(=O)Nc2cccc(C(=O)Nc3cc(C(=O)Nc4ccc(S(=O)(=O)O)c5cc(S(=O)(=O)O)cc(S(=O)(=O)O)c45)ccc3C)c2)c1 [Suramin, reference compound]",,,,,,,,,,,,,,,"inhibition at 1 µM ([1]; 1 µM, control solvent only, SD did not exceed 6%, read-out: Inhibition of SHP2, percentage of inhibition of the control): 10%; inhibition at 1 µM ([2]; read-out: Inhibition of PTP1B, percentage of inhibition of the control): 7%; inhibition at 1 µM ([3]; 1 µM, control solvent only, SD did not exceed 6%, read-out: Inhibition of SHP1, percentage of inhibition of the control): 17%; inhibition at 1 µM ([4]; 1 µM, control solvent only, SD did not exceed 6%, read-out: Inhibition of LAR, percentage of inhibition of the control): 9%"
"ammonium heptamolybdate [(NH4)6Mo7O24, reference compound]",47%,33%,40%,28%,7.59,34 ± 1%,51 ± 1%,−7.24 ± 0.06,7.24,7.59,−7.59 ± 0.13,18 ± 2%,53 ± 3%,7.42,Log IC50 ± SD SHP2 ([1]; logarithm of IC50): −7.58 ± 0.04; Log IC50 ± SD LAR ([4]; logarithm of IC50): −7.42 ± 0.04
"O.[O]=[V]1[O]C(c2ccc(O)cc2)=NN=Cc2cc(Br)ccc2[O]1.c1cnc2c(c1)ccc1cccnc12 [VC046, [VO(L9)(phen)]⋅2H2O]",66%,34%,62%,37%,,,,,,,,,,,
"C1CCOC1.CSCCC1C(=O)[O][V](=[O])([Cl])([Cl])[N]1C(C)=CC(=S)Nc1ccccc1.Cl (stereo not drawn) [VC073, [VOCl2(L4)]·1.5THF·3HCl]",86%,74%,82%,63%,,,,,,,,,,,
"CC(CC(=S)Nc1ccccc1)=NC(Cc1ccccc1)C(=O)[O][V](=[O])([Cl])[Cl] (stereo not drawn) [VC059, [VOCl2(L2)]·0.5Et2O·1.5HCl]",87%,79%,82%,71%,7.89,55 ± 3%,68 ± 3%,−6.97 ± 0.01,6.97,7.59,−7.59 ± 0.04,44 ± 1%,54 ± 9%,7.12,"pIC50 ([2]; read-out: IC50 for PTP1B): 6.96; Cell viability of myocytes C2C12, % of the control [7]: 86 ± 6%"
"CC(C)(C)c1ccc(C2=NN=Cc3cc(Br)ccc3[O][V](=[O])[O]2)cc1.O.c1cnc2c(c1)ccc1cccnc12 [VC048, [VO(L10)(phen)]⋅0.5H2O]",64%,36%,62%,35%,,,,,,,,,,,
"[O]=[V]1[O]C(c2ccc(Cl)cc2)=NN=Cc2cc(Br)ccc2[O]1.c1cnc2c(c1)ccc1cccnc12 [VC050, [VO(L11)(phen)]]",57%,25%,53%,19%,6.56,12 ± 8%,38 ± 1%,−5.37 ± 0.03,5.37,6.18,−6.18 ± 0.03,24 ± 3%,51 ± 4%,5.77,
